Assay results reported in ChEMBL document CHEMBL1201862, “PubChem BioAssay data set” (2004).
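In this assay, cells in 96-well plates receive the compound at five concentrations for 48 hours. Endpoints are linearly interpolated between the surrounding concentrations. Here, GI50 denotes the concentration required for 50% inhibition of growth.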 Activity calls are given as the source filed them. Rule as the data show it: active = GI50 up to about 1.1 µM and inactive = higher.

Key:
Experiment in all cases: NCI tumour cell line growth inhibition, 48 h
UO-31 = tested on: UO-31
SF-295 = tested on: SF-295
M19-MEL = tested on: M19-MEL
SK-OV-3 = tested on: SK-OV-3
Malme-3M = tested on: Malme-3M
RPMI-8226 = tested on: RPMI-8226
KM-20L2 = tested on: KM-20L2
NCI-H460 = tested on: NCI-H460
CAKI-1 = tested on: CAKI-1
HCC 2998 = tested on: HCC 2998
SW-620 = tested on: SW-620
LXFL 529 = tested on: LXFL 529
HT-29 = tested on: HT-29
COLO 205 = tested on: COLO 205
UACC-257 = tested on: UACC-257
HOP-92 = tested on: HOP-92
OVCAR-5 = tested on: OVCAR-5
NCI-H522 = tested on: NCI-H522
K562 = tested on: K562
IGROV-1 = tested on: IGROV-1
SK-MEL-5 = tested on: SK-MEL-5
HOP-62 = tested on: HOP-62
RXF 393 = tested on: RXF 393
UACC-62 = tested on: UACC-62
SF-539 = tested on: SF-539
KM12 = tested on: KM12
OVCAR-8 = tested on: OVCAR-8
TK-10 = tested on: TK-10
SNB-19 = tested on: SNB-19
SNB-75 = tested on: SNB-75
DMS-114 = tested on: DMS-114
A549 = tested on: A549
CCRF-CEM = tested on: CCRF-CEM
NCI-H23 = tested on: NCI-H23
A498 = tested on: A498
HOP-18 = tested on: HOP-18
HCT-15 = tested on: HCT-15
SF-268 = tested on: SF-268
ACHN = tested on: ACHN
MOLT-4 = tested on: MOLT-4
HCT-116 = tested on: HCT-116
U-251 = tested on: U-251
786-0 = tested on: 786-0
DLD-1 = tested on: DLD-1
LOX IMVI = tested on: LOX IMVI
OVCAR-4 = tested on: OVCAR-4
SN12C = tested on: SN12C
NCI-H226 = tested on: NCI-H226
OVCAR-3 = tested on: OVCAR-3
SK-MEL-28 = tested on: SK-MEL-28
EKVX = tested on: EKVX
DMS-273 = tested on: DMS-273
SK-MEL-2 = tested on: SK-MEL-2
XF498 = tested on: XF498
SNB-78 = tested on: SNB-78
M14 = tested on: M14
HL-60 = tested on: HL-60
SR = tested on: SR

With `COc1ccc2nc3cc(Cl)ccc3c(SCC(=O)Nc3ccccc3-c3ccccc3NC(=O)CSc3c4ccc(Cl)cc4nc4ccc(OC)cc34)c2c1` the GI50 (UO-31) was > 100 µM (inactive), the GI50 (SF-295) was > 100 µM (inactive) and the GI50 (M19-MEL) was > 100 µM (inactive). The GI50 (SK-OV-3) was > 100 µM (inactive), the GI50 (Malme-3M) was > 100 µM (inactive) and the GI50 (RPMI-8226) was > 100 µM (inactive). For the same compound, the GI50 (KM-20L2) was > 100 µM (inactive), the GI50 (NCI-H460) was > 100 µM (inactive) and the GI50 (CAKI-1) was > 100 µM (inactive). For the same compound, the GI50 (HCC 2998) was > 100 µM (inactive), the GI50 (SW-620) was > 100 µM (inactive) and the GI50 (LXFL 529) was > 100 µM (inactive). The GI50 (HT-29) was > 100 µM (inactive), the GI50 (COLO 205) was > 100 µM (inactive) and the GI50 (UACC-257) was > 100 µM (inactive). The GI50 (HOP-92) was > 100 µM (inactive), the GI50 (OVCAR-5) was > 100 µM (inactive) and the GI50 (NCI-H522) was > 100 µM (inactive). For the same compound, the GI50 (K562) was > 100 µM (inactive), the GI50 (IGROV-1) was > 100 µM (inactive) and the GI50 (SK-MEL-5) was > 100 µM (inactive). For the same compound, the GI50 (HOP-62) was > 100 µM (inactive), the GI50 (RXF 393) was > 100 µM (inactive) and the GI50 (UACC-62) was > 100 µM (inactive). For the same compound, the GI50 (SF-539) was > 100 µM (inactive), the GI50 (KM12) was > 100 µM (inactive) and the GI50 (OVCAR-8) was > 100 µM (inactive). The GI50 (TK-10) was > 100 µM (inactive), the GI50 (SNB-19) was > 100 µM (inactive) and the GI50 (SNB-75) was > 100 µM (inactive). The GI50 (DMS-114) was > 100 µM (inactive), the GI50 (A549) was > 100 µM (inactive) and the GI50 (CCRF-CEM) was > 100 µM (inactive). For the same compound, the GI50 (NCI-H23) was > 100 µM (inactive), the GI50 (A498) was > 100 µM (inactive) and the GI50 (HOP-18) was > 100 µM (inactive). For the same compound, the GI50 (HCT-15) was greater than 100 µM, the GI50 (SF-268) was > 100 µM (inactive) and the GI50 (ACHN) was > 100 µM (inactive). The GI50 (MOLT-4) was > 100 µM (inactive), the GI50 (HCT-116) was > 100 µM (inactive) and the GI50 (U-251) was > 100 µM (inactive). For the same compound, the GI50 (786-0) was > 100 µM (inactive), the GI50 (DLD-1) was > 100 µM (inactive) and the GI50 (LOX IMVI) was > 100 µM (inactive). The GI50 (OVCAR-4) was > 100 µM (inactive), the GI50 (SN12C) was > 100 µM (inactive) and the GI50 (NCI-H226) was > 100 µM (inactive). The GI50 (OVCAR-3) was > 100 µM (inactive), the GI50 (SK-MEL-28) was > 100 µM (inactive) and the GI50 (EKVX) was > 100 µM (inactive). The GI50 (DMS-273) was > 100 µM (inactive), the GI50 (SK-MEL-2) was > 100 µM (inactive) and the GI50 (XF498) was > 100 µM (inactive). The GI50 (SNB-78) was > 100 µM (inactive) and the GI50 (M14) was > 100 µM (inactive).
For `COc1cc2ccc1-c1cc(ccc1O)CC1c3cc4c(cc3CCN1C)Oc1c(OC)cc3c(c1O4)C(C2)N(C)CC3` (stereo not drawn), the GI50 (UO-31) was 1.8 µM (inactive), the GI50 (SF-295) was 1.81 µM (inactive) and the GI50 (M19-MEL) was 1.88 µM (inactive). For the same compound, the GI50 (Malme-3M) was 1.89 µM (inactive), the GI50 (RPMI-8226) was 1.91 µM (inactive) and the GI50 (KM-20L2) was 1.46 µM (inactive). The GI50 (NCI-H460) was 1.75 µM (inactive), the GI50 (CAKI-1) was 2.52 µM (inactive) and the GI50 (HCC 2998) was 1.63 µM (inactive). The GI50 (SW-620) was 1.84 µM (inactive), the GI50 (LXFL 529) was 1.84 µM (inactive) and the GI50 (HL-60) was 2.16 µM (inactive). For the same compound, the GI50 (HT-29) was 1.73 µM (inactive), the GI50 (UACC-257) was 1.72 µM (inactive) and the GI50 (HOP-92) was 13.4 µM (inactive). The GI50 (OVCAR-5) was 3.4 µM (inactive), the GI50 (NCI-H522) was 1.75 µM (inactive) and the GI50 (K562) was 1.44 µM (inactive). For the same compound, the GI50 (IGROV-1) was 2.17 µM (inactive), the GI50 (SK-MEL-5) was 2.08 µM (inactive) and the GI50 (HOP-62) was 1.93 µM (inactive). For the same compound, the GI50 (RXF 393) was 1.67 µM (inactive), the GI50 (UACC-62) was 2 µM (inactive) and the GI50 (SF-539) was 1.79 µM (inactive). The GI50 (KM12) was 1.73 µM (inactive), the GI50 (OVCAR-8) was 1.87 µM (inactive) and the GI50 (TK-10) was 12.2 µM (inactive). For the same compound, the GI50 (SNB-19) was 1.98 µM (inactive), the GI50 (SNB-75) was 1.8 µM (inactive) and the GI50 (DMS-114) was 2 µM (inactive). For the same compound, the GI50 (A549) was 1.84 µM (inactive), the GI50 (CCRF-CEM) was 2.19 µM (inactive) and the GI50 (NCI-H23) was 1.99 µM (inactive). The GI50 (A498) was 2.19 µM (inactive), the GI50 (HCT-15) was 1.68 µM and the GI50 (SF-268) was 1.81 µM (inactive). The GI50 (ACHN) was 2 µM (inactive), the GI50 (MOLT-4) was 1.83 µM (inactive) and the GI50 (HCT-116) was 1.46 µM (inactive). The GI50 (U-251) was 1.69 µM (inactive), the GI50 (786-0) was 1.69 µM (inactive) and the GI50 (DLD-1) was 2.28 µM (inactive). For the same compound, the GI50 (LOX IMVI) was 1.99 µM (inactive), the GI50 (OVCAR-4) was 1.96 µM (inactive) and the GI50 (SN12C) was 2.08 µM (inactive). The GI50 (NCI-H226) was 2.22 µM (inactive), the GI50 (OVCAR-3) was 1.95 µM (inactive) and the GI50 (SK-MEL-28) was 1.52 µM (inactive). The GI50 (EKVX) was 2.1 µM (inactive), the GI50 (DMS-273) was 1.78 µM (inactive) and the GI50 (SK-MEL-2) was 1.79 µM (inactive). The GI50 (XF498) was 1.92 µM (inactive), the GI50 (SNB-78) was 2.1 µM (inactive) and the GI50 (M14) was 1.82 µM (inactive). For the same compound, the GI50 (SR) was 1.85 µM (inactive).
`N#CC(c1nc2ccccc2nc1Cl)S(=O)(=O)c1ccccc1` (stereo not drawn) was tested, and the GI50 (UO-31) was 43.8 µM (inactive), the GI50 (M19-MEL) was > 100 µM (inactive) and the GI50 (Malme-3M) was 56.9 µM (inactive). The GI50 (RPMI-8226) was 37.2 µM (inactive), the GI50 (KM-20L2) was > 100 µM (inactive) and the GI50 (NCI-H460) was > 100 µM (inactive). The GI50 (CAKI-1) was 51.3 µM (inactive), the GI50 (HCC 2998) was 65.9 µM (inactive) and the GI50 (SW-620) was 69.3 µM (inactive). The GI50 (LXFL 529) was 46.6 µM (inactive), the GI50 (HL-60) was > 100 µM (inactive) and the GI50 (COLO 205) was > 100 µM (inactive). The GI50 (UACC-257) was > 100 µM (inactive), the GI50 (HOP-92) was 27.4 µM (inactive) and the GI50 (OVCAR-5) was > 100 µM (inactive). The GI50 (NCI-H522) was 30.7 µM (inactive), the GI50 (K562) was 34.3 µM (inactive) and the GI50 (SK-MEL-5) was > 100 µM (inactive). For the same compound, the GI50 (HOP-62) was > 100 µM (inactive), the GI50 (UACC-62) was 35.8 µM (inactive) and the GI50 (SF-539) was > 100 µM (inactive). For the same compound, the GI50 (KM12) was > 100 µM (inactive), the GI50 (OVCAR-8) was 74 µM (inactive) and the GI50 (TK-10) was > 100 µM (inactive). The GI50 (SNB-19) was > 100 µM (inactive), the GI50 (SNB-75) was > 100 µM (inactive) and the GI50 (DMS-114) was > 100 µM (inactive). For the same compound, the GI50 (A549) was > 100 µM (inactive), the GI50 (CCRF-CEM) was 30.1 µM (inactive) and the GI50 (NCI-H23) was 37.5 µM (inactive). For the same compound, the GI50 (A498) was > 100 µM (inactive), the GI50 (HCT-15) was 54.1 µM and the GI50 (SF-268) was > 100 µM (inactive). The GI50 (ACHN) was > 100 µM (inactive), the GI50 (MOLT-4) was 32.4 µM (inactive) and the GI50 (HCT-116) was > 100 µM (inactive). For the same compound, the GI50 (U-251) was 83.8 µM (inactive), the GI50 (786-0) was > 100 µM (inactive) and the GI50 (DLD-1) was > 100 µM (inactive). The GI50 (LOX IMVI) was 43.5 µM (inactive), the GI50 (OVCAR-4) was 53.3 µM (inactive) and the GI50 (SN12C) was 39.8 µM (inactive). For the same compound, the GI50 (NCI-H226) was > 100 µM (inactive), the GI50 (OVCAR-3) was > 100 µM (inactive) and the GI50 (SK-MEL-28) was > 100 µM (inactive). For the same compound, the GI50 (EKVX) was > 100 µM (inactive), the GI50 (DMS-273) was > 100 µM (inactive) and the GI50 (SK-MEL-2) was 97.1 µM (inactive). For the same compound, the GI50 (XF498) was 37.6 µM (inactive), the GI50 (SNB-78) was 25.8 µM (inactive) and the GI50 (M14) was > 100 µM (inactive). For the same compound, the GI50 (SR) was > 100 µM (inactive).
